Consider two compounds from patent US20220264878A1, “HERBICIDAL COMPOSITION CONTAINING R-TYPE PYRIDYLOXY CARBOXYLIC ACID DERIVATIVE AND USE THEREOF” (Qingdao Kingagroot Chemical Compound Co., Ltd., priority 2019, published 2022).

Type in all cases: in vivo
One assay deals with Echinochloa caudate. Briefly: Soil sealing treatment, pot culture, fresh weight inhibition (Tables 99, 100). As for the experimental part:
(§1) A method for investigating absolute number was employed, wherein whole seedlings of survival weeds were cut off with a blade along the soil surface, and the fresh weight of the weeds was weighed with an analytical balance. For dead weeds, the fresh weight thereof was zero.
(§2) Theoretical fresh weight inhibition rate of a combination of two active ingredients in each group was calculated by the Gowing method (E0=X+Y−X*Y/100), and then compared with an actually measured inhibition rate (E), thereby effect of the combination (hereafter referred to as combined effect) on weeds was evaluated: the value of E-E0, which was greater than 10%, corresponded to a synergistic effect, the value of E-E0, which was less than −10%, corresponded to an antagonistic effect, and the value of E-E0, which was from −10% to 10%, corresponded to an additional effect. […] Wherein, in the formula, X represented the fresh weight inhibition rate of the active ingredient A in a dosage of P, and Y represented the fresh weight inhibition rate of the active ingredient B in a dosage of Q.
(§3) Echinochloa crusgalli var zelayensis were collected in Huai'an of Jiangsu Province; Echinochloa caudate were collected in Pingluo of Ningxia Province; Echinochloa oryzoides were collected in Qiqiha'er of Heilongjiang Province.
(§4) The culture was carried out in a controllable sunlight greenhouse at 20 to 30° C., in natural light, and relative humidity of 57% to 72%. […] The test soil was placed quantitatively to ¾ of the pots and then watered from the bottom of the pots to completely wet the soil to saturation. The pretreated test weed seeds were uniformly sowed on the surface, then covered with 0.5-2 cm soil according to the seed size, and ready-for use 24 hours after sowing.
(§5) The technical materials were all dissolved in acetone, and diluted with an aqueous solution containing 0.1% emulsifier T-80. The dilution is performed as required.
(§6) A ratio of A to the active ingredient B and amounts thereof in each group depends on the characteristics and toxicity of the two agents, as well as the main application purpose of a corresponding formulation. Based on the pre-tests in this study, the dosage of A and the active ingredient B applied alone and in combination were shown in the tables. Water containing the solvent and emulsifier same with the above groups but free of the agents was used as a blank control.
(§7) 3 pots with 30 weed seeds per pot were treated in one treatment with 4 replications per treatment.
(§8) The pots which were sowed and mulched were evenly placed on a platform with an area of 0.5 m^2, and a solution of agents was sprayed on soil surface thereof by the 3WP-2000-type walking spray tower at a dosage of […] and at a spray pressure of 0.3 MPa. After all the solution was sprayed, the valve was closed. After 30 seconds, the door of the spray tower was opened, and the nutritional bowl was taken out. Then the valve was opened, and the spray tube was cleaned by spraying 50 ml of water.
(§9) This section was same as the section 4) in the post-emergence treatment by performing foliage spray, and was not repeated herein.

A further assay concerns Chenopodium album. Briefly: Post-emergence foliage spray, pot culture, fresh weight inhibition (Tables 1-48, 51-98, 101-148; 24 days). In short, it runs like this:
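Pot-grown weeds were thinned to 15 per pot (45 per treatment) and sprayed on foliage at the 5–6-leaf stage for grasses or the 6–7-leaf stage for broadleaves. Agents were dissolved in acetone with 0.1% Tween-80 and applied at 450 kg/ha spray volume and 0.3 MPa. Plants were then kept in a greenhouse. Above-ground fresh weight of survivors, with dead plants counted as zero, gave inhibition versus a solvent/emulsifier blank.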

The test system of a further assay is Conyza Canadensis. Briefly: Post-emergence foliage spray on Conyza Canadensis with a height of 10 cm, fresh weight inhibition (Tables 207-216; 24 days). The conditions noted are these: 24 days after treatment. The protocol:
The above weeds were cultivated by a pot culture method. […] Full and uniform weed seeds were selected, soaked in warm water at 25° C. for 6 hours, and germinated in a 28° C. biochemical incubator (darkness). The weed seeds that had just germinatedwere evenly placed on the surface of the soil and then covered with 0.5-1 cm soil according to the sizes of seeds.
The technical materials were all dissolved in acetone, and diluted with an aqueous solution containing 0.1% emulsifier Tween-80. The dilution is performed as required.
A ratio of the active ingredient A to the active ingredient B and amounts thereof in each group depends on the characteristics and toxicity of the two agents, as well as the main application purpose of a corresponding formulation. Based on the pre-tests in this study, the dosage of the active ingredient A and B applied alone and in combination were shown in the tables. Water containing the solvent and emulsifier same with the above groups but free of the agents was used as a blank control.
In the stage of weeds with 6˜8 leaves, the weeds were thinned out to maintain 3 weeds per pot and 30 weeds for each treatment, then continued to be cultured to Conyza Canadensis with a height of 10 cm, and treated.
The well-cultured weeds were evenly placed on a platform with an area of 0.5 m^2, and a solution of agents was sprayed on the stems and leaves thereof by the 3WP-2000-type walking spray tower at a dosage of 450 kg/ha and at a spray pressure of 0.3 MPa. After all the solution was sprayed, the valve was closed. After 30 seconds, the door of the spray tower was opened, and the nutritional bowl was taken out. Then the valve was opened, and the spray tube was cleaned by spraying 50 ml of water.
A pot-culture method was employed. For the cultivation of weeds, please refer to the Section 1.1), and “Pesticide guidelines for laboratory bioactivity tests—herbicides”. As to a method for applying agents, please refer to the section 2.3.2), that is, a foliage treatment was employed. After the treatment, the weeds were routinely cultured in a greenhouse.
as §1
Wherein, in the formula, X represented the fresh weight inhibition rate of the active ingredient A in a dosage of P, and Y represented the fresh weight inhibition rate of the active ingredient B in a dosage of Q.

The subject of assay [1] is Echinochloa crusgalli var. zelayensis. Briefly: Soil sealing treatment, pot culture, fresh weight inhibition (Tables 49, 50). The protocol: as §1, §2, §3, §4, §5, §6, §7, §8, §9

Regarding `C[C@@H](Oc1nc(F)c(Cl)c(N)c1Cl)C(=O)O` [Compound A1], the “Control effect (%) of A applied alone in corresponding dose” value (from here on “Control effect (%) of A applied alone”) with Echinochloa caudate (Table 99, 75 g a.i./ha) is 23.4%; in the assay on Echinochloa caudate (Table 99, 150 g a.i./ha) it was 47.2%; in the assay with Echinochloa caudate (Table 100, 75 g a.i./ha), 23.4%; in the assay with Echinochloa caudate (Table 100, 150 g a.i./ha) it was 47.2%; in the assay with Chenopodium album (A1 7.5 g a.i./ha) it was 23.1%; in the assay on Chenopodium album (A1 15 g a.i./ha), 55.6%. In addition, the “Control effect (%) of A applied alone” value with Chenopodium album (Table 91, 75 g a.i./ha) worked out at 23.1%; with Chenopodium album (Table 91, 150 g a.i./ha), 55.6%; in the assay on Chenopodium album (Table 92, 75 g a.i./ha), 23.1%; in the assay on Chenopodium album (Table 92, 150 g a.i./ha), 55.6%; in the assay on Chenopodium album (Table 93, 75 g a.i./ha) it was 23.1%; in the assay on Chenopodium album (Table 93, 150 g a.i./ha) it was 55.6%. In addition, the “Control effect (%) of A applied alone” value turned out to be 23.1% in the assay with Chenopodium album (Table 94, 75 g a.i./ha); 55.6% in the assay with Chenopodium album (Table 94, 150 g a.i./ha); 23.1% with Chenopodium album (Table 95, 75 g a.i./ha); 55.6% with Chenopodium album (Table 95, 150 g a.i./ha); 23.1% with Chenopodium album (Table 96, 75 g a.i./ha); 55.6% in the assay with Chenopodium album (Table 96, 150 g a.i./ha).

Consider `C[C@@H](Oc1nc(F)c(Cl)c(N)c1Cl)C(=O)OCC1CCCO1` (stereo partly shown) [Compound A2], for which the “Control effect (%) of A applied alone” value stood at 22.6% in the assay with Conyza Canadensis (A alone 60 g a.i./ha), 47.9% with Conyza Canadensis (A alone 120 g a.i./ha), 21.4% in assay [1] (A2 75 g a.i./ha) and 45.2% in assay [1] (A2 150 g a.i./ha).
